# US20250326748A1, “COMPOUNDS AND METHODS FOR MODULATING SPLICING” (REMIX THERAPEUTICS INC., priority 2022, published 2025)
# Where two headings read alike, the source gives them in different places.
# Columns and labels:
# Format in all cases: cell-based, human
# HiBiT-tagged MYB protein = assay: HiBiT protein abundance assay, MYB (K562 HiBiT knock-in); settings: HiBiT knock-in cells, 24 hours
# In short: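 Endogenously HiBiT-tagged K562 knock-in lines treated 24 h at 37 °C with 10-point 3-fold dilutions (top 10 μM final, DMSO ≤0.25%) in IMDM+1% FBS. Lytic Nano-Glo luminescence normalized to DMSO and unmodified K562 controls; four-parameter fit gives 50%-abundance concentration (IC50).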
# HTT mRNA = assay: Splicing RT-qPCR assay, HTT canonical (CJ) and alternative (AJ) junction mRNA; settings: Homo sapiens; for IC50: canonical junction mRNA; for AC50: alternative junction mRNA, read-out: HTT AJ (AC50, increase in AJ mRNA)
# In short: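 One-step RT-qPCR on cell lysates quantified CJ and AJ isoforms, normalized to PPIA for A673 or GAPDH/GUSB for K562. Cells were exposed for 24 h at 37° C to 11 concentrations in 3-fold steps up to 10 uM, with DMSO ≤0.25%. A673 were grown in DMEM and K562 in IMDM, both with 10% FBS.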
# Target C = assay: HiBiT protein abundance assay, Target C (K562 HiBiT knock-in); settings: HiBiT knock-in cells, 24 hours
# In short: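 K562 HiBiT knock-in cells (10000/well) in IMDM + 1% FBS were treated for 24 h at 37° C. with a 10-point 3-fold dilution series (top 10 μM final), with DMSO ≤0.25%. Unmodified K562 served as baseline. HiBiT lytic luminescence was normalized to controls, and IC50 was interpolated at 50% from a four-parameter fit.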
# [1] = 24 h, RT-qPCR, A673 or K562 cells, 24 hours treatment, read-out: HTT CJ (IC50, decrease in CJ mRNA)
# [2] = qPCR panel, read-out: HTT CJ (decrease in CJ mRNA levels, IC50)
# [3] = RT-qPCR, A673 or K562 cells, 24 hours treatment
Structure (SMILES),IC50 (HiBiT-tagged MYB protein) [µM],IC50 (HTT mRNA; [1]) [µM],IC50 (HTT mRNA; [2]) [µM],AC50 (HTT mRNA; [3]) [µM],IC50 (Target C) [µM]
"Cn1cc2cc(-c3ccc4cc(N5CC[C@H](NC(C)(C)C)C5)cnc4n3)c(O)cc2n1 (single isomer, unassigned) [Compound 200]",0.1 to 1,1 to 10,1 to 10,1 to 10,1 to 10
"CNC1CCN(c2cnc3nc(-c4cc(F)c5nc(C)cn5c4)ccc3c2)C1 (stereo not shown) [Compound 100, 1-(7-{8-fluoro-2-methylimidazo[1,2-a]pyridin-6-yl}-1,8-naphthyridin-3-yl)-N-methylpyrrolidin-3-amine]",< 0.1,0.1 to 1,0.1 to 1,0.1 to 1,0.1 to 1
"Cn1cc2cc(-c3cnc4nc(N5CCNCC5)cc(Cl)c4c3)cc(F)c2n1 [Compound 101, 4-chloro-6-(7-fluoro-2-methyl-2H-indazol-5-yl)-2-(piperazin-1-yl)-1,8-naphthyridine]",< 0.1,1 to 10,1 to 10,1 to 10,1 to 10
"Cn1cc2cc(-c3cc(Cl)c4cc(N5CCNCC5)cnc4n3)c(O)cc2n1 [Compound 102, 5-[4-chloro-6-(piperazin-1-yl)-1,8-naphthyridin-2-yl]-2-methylindazol-6-ol]",< 0.1,0.1 to 1,0.1 to 1,0.1 to 1,0.1 to 1
Cn1cc2cc(-c3cc(Cl)c4cc(N5CCNCC5)cnc4n3)cc(F)c2n1 [Compound 103],< 0.1,0.1 to 1,0.1 to 1,1 to 10,0.1 to 1
"Cc1c(O)c(-c2cc(Cl)c3cc(N4CCNCC4)cnc3n2)cc2cn(C)nc12 [Compound 154, 5-[4-chloro-6-(piperazin-1-yl)-1,8-naphthyridin-2-yl]-2,7-dimethylindazol-6-ol]",< 0.1,0.1 to 1,0.1 to 1,0.1 to 1,0.1 to 1
"Cn1cc2cc(-c3cc(Cl)c4cc(N5CCNCC5)cnc4n3)c(O)c(F)c2n1 [Compound 155, 5-[4-chloro-6-(piperazin-1-yl)-1,8-naphthyridin-2-yl]-7-fluoro-2-methylindazol-6-ol]",< 0.1,< 0.1,< 0.1,< 0.1,0.1 to 1
"Cc1c(O)c(-c2ncc3cc(N4CC[C@@H](N)C4)cnc3n2)cc2cn(C)nc12 [Compound 159, (R)-5-(6-(3-aminopyrrolidin-1-yl)pyrido[2,3-d]pyrimidin-2-yl)-2,7-dimethyl-2H-indazol-6-ol 2,2,2-trifluoroacetate]",< 0.1,< 0.1,< 0.1,0.1 to 1,0.1 to 1
"Cc1c(O)c(-c2ncc3cc(N4CC[C@H](N)C4)cnc3n2)cc2cn(C)nc12 [Compound 160, (S)-5-(6-(3-aminopyrrolidin-1-yl)pyrido[2,3-d]pyrimidin-2-yl)-2,7-dimethyl-2H-indazol-6-ol 2,2,2-trifluoroacetate]",< 0.1,0.1 to 1,0.1 to 1,0.1 to 1,0.1 to 1
"CNC1CCN(c2cnc3nc(-c4cc5cn(C)nc5c(C)c4O)nc(OC)c3c2)C1 (stereo not shown) [Compound 161, 5-{4-methoxy-6-[3-(methylamino)pyrrolidin-1-yl]pyrido[2,3-d]pyrimidin-2-yl}-2,7-dimethylindazol-6-ol]",< 0.1,0.1 to 1,0.1 to 1,0.1 to 1,0.1 to 1
"COc1nc(-c2cc3cn(C)nc3c(C)c2O)nc2ncc(N3CCNCC3)cc12 [Compound 162, 5-[4-methoxy-6-(piperazin-1-yl)pyrido[2,3-d]pyrimidin-2-yl]-2,7-dimethylindazol-6-ol]",< 0.1,0.1 to 1,0.1 to 1,0.1 to 1,0.1 to 1
"COc1nc(-c2cc3cn(C)nc3c(C)c2O)nc2ncc(N3CCC(N(C)C)CC3)cc12 [Compound 163, 5-{6-[4-(dimethylamino)piperidin-1-yl]-4-methoxypyrido[2,3-d]pyrimidin-2-yl}-2,7-dimethylindazol-6-ol]",0.1 to 1,1 to 10,1 to 10,> 10,> 10
"Cn1cc2cc(-c3cnc4cc(N5CCC(NC6CC6)C5)ccc4n3)c(O)c(F)c2n1 (stereo not shown) [Compound 175, 5-[6-[3-(cyclopropylamino)pyrrolidin-1-yl]quinoxalin-2-yl]-7-fluoro-2-methyl-indazol-6-ol]",< 0.1,< 0.1,< 0.1,< 0.1,0.1 to 1
"Cn1cc2cc(-c3cnc4cc(N5CC[C@H](NC6CC6)C5)ccc4n3)c(O)c(F)c2n1 [Compound 176, 5-[6-[(3S)-3-(cyclopropylamino)318quinoxaline-1-yl]318quinoxaline-2-yl]-7-fluoro-2-methyl-indazol-6-ol]",< 0.1,< 0.1,< 0.1,< 0.1,< 0.1
"Cn1cc2cc(-c3cnc4cc(N5CC[C@@H](NC6CC6)C5)ccc4n3)c(O)c(F)c2n1 [Compound 177, 5-[6-[(3R)-3-(cyclopropylamino)318quinoxaline-1-yl]318quinoxaline-2-yl]-7-fluoro-2-methyl-indazol-6-ol]",< 0.1,< 0.1,< 0.1,< 0.1,< 0.1
"Cn1cc2cc(-c3cnc4nc(N5CCC(NC6CC6)C5)ccc4n3)c(O)c(F)c2n1 (stereo not shown) [Compound 178, 5-[6-[3-(cyclopropylamino)pyrrolidin-1-yl]pyrido[2,3-b]pyrazin-2-yl]-7-fluoro-2-methyl-indazol-6-ol]",0.1 to 1,< 0.1,< 0.1,0.1 to 1,0.1 to 1
"Cc1nc2c(C)c(O)c(-c3cnc4cc(N5CCC(NC6CC6)C5)ccc4n3)cc2o1 (stereo not shown) [Compound 182, 6-[6-[3-(cyclopropylamino)pyrrolidin-1-yl]quinoxalin-2-yl]-2,4-dimethyl-1,3-benzoxazol-5-ol]",< 0.1,< 0.1,< 0.1,< 0.1,< 0.1
"CNC1CCN(c2cnc3nc(-c4cc5cn(C)nc5c(C)c4O)ccc3n2)C1 (stereo not shown) [Compound 192, 2,7-dimethyl-5-{2-[3-(methylamino)337pyrrolidine-1-yl]pyrido[2,3-b]pyrazin-6-yl}indazol-6-ol]",0.1 to 1,0.1 to 1,0.1 to 1,0.1 to 1,0.1 to 1
"CNC1CCN(c2cnc3nc(-c4cc5cn(C)nc5c(C)c4O)cc(Cl)c3n2)C1 (stereo not shown) [Compound 193, 5-{8-chloro-2-[3-(methylamino)355pyrrolidine-1-yl]pyrido[2,3-b]pyrazin-6-yl}-2,7-dimethylindazol-6-ol]",< 0.1,0.1 to 1,0.1 to 1,0.1 to 1,0.1 to 1
"CNC1CCN(c2cnc3nc(-c4cc5cn(C)nc5c(C)c4O)cc(OC)c3n2)C1 (stereo not shown) [Compound 194, 5-{8-methoxy-2-[3-(methylamino)360pyrrolidine-1-yl]pyrido[2,3-b]pyrazin-6-yl}-2,7-dimethylindazol-6-ol]",1 to 10,1 to 10,1 to 10,> 10,1 to 10
"Cc1c(O)c(-c2ccc3nc(N4C[C@@H](C)N[C@@H](C)C4)cnc3n2)cc2cn(C)nc12 [Compound 195, 5-{2-[(3R,5S)-3,5-dimethylpiperazin-1-yl]pyrido[2,3-b]pyrazin-6-yl}-2,7-dimethylindazol-6-ol]",0.1 to 1,1 to 10,1 to 10,> 10,1 to 10
"Cc1c(O)c(-c2ccc3nc(N4CCNCC4)cnc3n2)cc2cn(C)nc12 [Compound 197, 2,7-dimethyl-5-[2-(piperazin-1-yl)pyrido[2,3-b]pyrazin-6-yl]indazol-6-ol]",0.1 to 1,0.1 to 1,0.1 to 1,0.1 to 1,0.1 to 1
Cc1c(O)c(-c2ccc3nc(N4CCC(N(C)C)CC4)cnc3n2)cc2cn(C)nc12 [Compound 198],0.1 to 1,1 to 10,< 0.1,> 10,1 to 10
Cn1cc2cc(-c3ccc4cc(N5CC[C@@H](NC(C)(C)C)C5)cnc4n3)c(O)cc2n1 [Compound 199],< 0.1,1 to 10,1 to 10,1 to 10,1 to 10
Cc1cn2cc(-c3cnc4nc(C5CCNCC5)ccc4c3)cc(C)c2n1 [Compound 201],1 to 10,> 10,< 0.1,> 10,> 10
"CN[C@@H]1CCN(c2cnc3nc(-c4cc(F)c5nc(C)cn5c4)ncc3c2)C1 [Compound 202, (3R)-1-(2-{8-fluoro-2-methylimidazo[1,2-a]pyridin-6-yl}pyrido[2,3-d]pyrimidin-6-yl)-N-methylpyrrolidin-3-amine]",< 0.1,0.1 to 1,0.1 to 1,0.1 to 1,0.1 to 1
